Measured values: patent US20180334447A1, “2,3,4,5-TETRAHYDROPYRIDIN-6-AMINE DERIVATIVES” (JANSSEN PHARMACEUTICA NV, priority 2015, published 2018)

Biological target: T1, recombinant BACE1 protein (Homo sapiens, UniProt P56817)
T1 construct: recombinant BACE1 protein in a final concentration of 1 μg/ml
Test: BACE1 biochemical FRET based assay - Method 1
Conditions: BACE1, 120 minutes at room temperature, pH 5.0; read-out: Biochemical FRET based assay - Method 1 pIC50 (converted)
Text: (§1) This assay is a Fluorescence Resonance Energy Transfer Assay (FRET) based assay. The substrate for this assay is an APP derived 13 amino acids peptide that contains the ‘Swedish’ Lys-Met/Asn-Leu mutation of the amyloid precursor protein (APP) beta-secretase cleavage site. This substrate also contains two fluorophores: (7-methoxycoumarin-4-yl) acetic acid (Mca) is a fluorescent donor with excitation wavelength at 320 nm and emission at 405 nm and 2,4-Dinitrophenyl (Dnp) is a proprietary quencher acceptor. […] Upon cleavage by BACE1, the fluorophore Mca is separated from the quenching group Dnp, restoring the full fluorescence yield of the donor. The increase in fluorescence is linearly related to the rate of proteolysis.
Briefly in a 384-well format recombinant BACE1 protein in a final concentration of 1 μg/ml is incubated for 120 minutes at room temperature with 10 μm substrate in incubation buffer (40 mM Citrate buffer pH 5.0, 0.04% PEG, 4% DMSO) in the absence or presence of compound. Next the amount of proteolysis is directly measured by fluorescence measurement at T=0 and T=120 (excitation at 320 nm and emission at 405 nm). Results are expressed in RFU (Relative Fluorescence Units), as difference between T120 and T0.
(§2) A best-fit curve is fitted by a minimum sum of squares method to the plot of % Controlmin versus compound concentration. From this an IC50 value (inhibitory concentration causing 50% inhibition of activity) can be obtained.

T1 sequence (P56817 46-501): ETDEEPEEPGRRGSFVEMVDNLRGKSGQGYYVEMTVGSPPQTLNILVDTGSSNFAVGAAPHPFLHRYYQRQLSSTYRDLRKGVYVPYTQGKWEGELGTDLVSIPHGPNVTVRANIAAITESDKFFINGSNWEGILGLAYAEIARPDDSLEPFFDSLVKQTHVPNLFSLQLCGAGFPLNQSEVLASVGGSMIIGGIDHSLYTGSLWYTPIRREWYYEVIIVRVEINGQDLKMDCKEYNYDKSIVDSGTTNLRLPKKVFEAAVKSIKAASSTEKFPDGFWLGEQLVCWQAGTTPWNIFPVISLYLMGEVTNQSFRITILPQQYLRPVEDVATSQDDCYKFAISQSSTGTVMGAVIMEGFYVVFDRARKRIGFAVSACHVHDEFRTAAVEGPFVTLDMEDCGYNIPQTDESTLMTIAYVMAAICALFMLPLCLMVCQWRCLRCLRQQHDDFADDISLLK

| IC50 [µM] | Compound |
| --- | --- |
| 5.75 | COc1cnc(C(=O)Nc2ccc(F)c([C@@]3(C)N=C(N)[C@@](C)(S(C)(=O)=O)C[C@@H]3F)c2)cn1 [Compound 18] |
| 0.38 | C[C@]1(S(C)(=O)=O)CC[C@@](CF)(c2cc(NC(=O)c3ccc(F)cn3)ccc2F)N=C1N [Compound 19] |
| 1.66 | C[C@]1(S(C)(=O)=O)CC(F)(F)[C@@](C)(c2cc(NC(=O)c3cnc(OCF)cn3)ccc2F)N=C1N [Compound 23] |
| 0.0912 | C[C@]1(c2cc(NC(=O)c3cnc(OCF)cn3)ccc2F)N=C(N)[C@](C)(S(C)(=O)=O)CC1(F)F [Compound 24] |
| 0.0024 | CC1(S(=O)(=O)C2CC2)CCC(CF)(c2cc(NC(=O)c3ccc(F)cn3)ccc2F)N=C1N (stereo not drawn) [Compound 25] |
| 0.00372 | CCOc1cnc(C(=O)Nc2ccc(F)c(C3(CF)CCC(C)(S(C)(=O)=O)C(N)=N3)c2)cn1 (stereo not drawn) [Compound 37] |
| 0.00389 | CC1(S(C)(=O)=O)CCC(CF)(c2cc(NC(=O)c3ncc(F)cn3)ccc2F)N=C1N (stereo not drawn) [Compound 38] |
| 0.00457 | Cc1nc(C(=O)Nc2ccc(F)c(C3(CF)CCC(C)(S(C)(=O)=O)C(N)=N3)c2)co1 (stereo not drawn) [Compound 40] |
| 0.0038 | CC1(S(C)(=O)=O)CCC(CF)(c2cc(NC(=O)c3cnc(C(F)F)cn3)ccc2F)N=C1N (stereo not drawn) [Compound 42] |
| 0.00912 | CC1(S(C)(=O)=O)CCC(CF)(c2cc(NC(=O)c3ncc(C(F)(F)F)cn3)ccc2F)N=C1N (stereo not drawn) [Compound 43] |
| 0.00363 | CC1(S(C)(=O)=O)CCC(CF)(c2cc(NC(=O)c3ncc(Cl)cn3)ccc2F)N=C1N (stereo not drawn) [Compound 44] |
| 0.00316 | COc1cnc(C(=O)Nc2ccc(F)c(C3(CF)CCC(C)(S(C)(=O)=O)C(N)=N3)c2)nc1 (stereo not drawn) [Compound 45] |
| 0.00355 | C[C@@]1(S(C)(=O)=O)CC[C@@](CF)(c2cc(NC(=O)c3ccc(F)cn3)cc(F)c2F)N=C1N [Compound 47] |
| 0.024 | CO[C@@H]1C[C@@](C)(S(C)(=O)=O)C(N)=N[C@]1(C)c1cc(NC(=O)c2cnc(OCF)cn2)ccc1F [Compound 48a] |
| 0.0339 | CO[C@H]1C[C@@](C)(C#N)C(N)=N[C@]1(C)c1cc(NC(=O)c2cnc(OCF)cn2)ccc1F [Compound 49a] |

System: Abeta 1-42 produced and secreted into the medium of human neuroblastoma SKNBE2 cells
Test: Cellular αLisa assay in SKNBE2 cells, Abeta 42
Format: cell-based
Conditions: Homo sapiens, SKNBE2, 18 h, SKNBE2 cells expressing hAPP695, incubated for 18 hours; read-out: Cellular αLisa assay in SKNBE2 cells Abeta 42 pIC50 (converted)
Protocol: In two αLisa assays the levels of Abeta 1-42 produced and secreted into the medium of human neuroblastoma SKNBE2 cells are quantified. The assay is based on the human neuroblastoma SKNBE2 expressing the wild type Amyloid Precursor Protein (hAPP695). The compounds are diluted and added to these cells, incubated for 18 hours and then measurements of Abeta 1-42 are taken. Abeta 1-42 are measured by sandwich αLisa. αLisa is a sandwich assay using biotinylated antibody AbN/25 attached to streptavidin coated beads and antibody cAb42/26 conjugated acceptor beads for the detection of Abeta 1-42 respectively. In the presence of Abeta 1-42, the beads come into close proximity. The excitation of the donor beads provokes the release of singlet oxygen molecules that trigger a cascade of energy transfer in the acceptor beads, resulting in light emission. Light emission is measured after 1 hour incubation (excitation at […] and emission at 615 nm).
as §2

| IC50 [µM] | Compound |
| --- | --- |
| 3.55 | COc1cnc(C(=O)Nc2ccc(F)c([C@@]3(C)N=C(N)[C@@](C)(S(C)(=O)=O)C[C@@H]3F)c2)cn1 [Compound 18] |
| 0.38 | C[C@]1(S(C)(=O)=O)CC[C@@](CF)(c2cc(NC(=O)c3ccc(F)cn3)ccc2F)N=C1N [Compound 19] |
| 4.47 | C[C@]1(S(C)(=O)=O)CC(F)(F)[C@@](C)(c2cc(NC(=O)c3cnc(OCF)cn3)ccc2F)N=C1N [Compound 23] |
| 0.468 | C[C@]1(c2cc(NC(=O)c3cnc(OCF)cn3)ccc2F)N=C(N)[C@](C)(S(C)(=O)=O)CC1(F)F [Compound 24] |
| 0.00372 | CC1(S(=O)(=O)C2CC2)CCC(CF)(c2cc(NC(=O)c3ccc(F)cn3)ccc2F)N=C1N (stereo not drawn) [Compound 25] |
| 0.00347 | CCOc1cnc(C(=O)Nc2ccc(F)c(C3(CF)CCC(C)(S(C)(=O)=O)C(N)=N3)c2)cn1 (stereo not drawn) [Compound 37] |
| 0.00708 | CC1(S(C)(=O)=O)CCC(CF)(c2cc(NC(=O)c3ncc(F)cn3)ccc2F)N=C1N (stereo not drawn) [Compound 38] |
| 0.00186 | Cc1nc(C(=O)Nc2ccc(F)c(C3(CF)CCC(C)(S(C)(=O)=O)C(N)=N3)c2)co1 (stereo not drawn) [Compound 40] |
| 0.0024 | CC1(S(C)(=O)=O)CCC(CF)(c2cc(NC(=O)c3cnc(C(F)F)cn3)ccc2F)N=C1N (stereo not drawn) [Compound 42] |
| 0.00447 | CC1(S(C)(=O)=O)CCC(CF)(c2cc(NC(=O)c3ncc(C(F)(F)F)cn3)ccc2F)N=C1N (stereo not drawn) [Compound 43] |
| 0.00115 | CC1(S(C)(=O)=O)CCC(CF)(c2cc(NC(=O)c3ncc(Cl)cn3)ccc2F)N=C1N (stereo not drawn) [Compound 44] |
| 0.00324 | COc1cnc(C(=O)Nc2ccc(F)c(C3(CF)CCC(C)(S(C)(=O)=O)C(N)=N3)c2)nc1 (stereo not drawn) [Compound 45] |
| 0.0166 | C[C@@]1(S(C)(=O)=O)CC[C@@](CF)(c2cc(NC(=O)c3ccc(F)cn3)cc(F)c2F)N=C1N [Compound 47] |
| 0.0166 | CO[C@@H]1C[C@@](C)(S(C)(=O)=O)C(N)=N[C@]1(C)c1cc(NC(=O)c2cnc(OCF)cn2)ccc1F [Compound 48a] |
| 0.017 | CO[C@H]1C[C@@](C)(C#N)C(N)=N[C@]1(C)c1cc(NC(=O)c2cnc(OCF)cn2)ccc1F [Compound 49a] |

Biological target: T2, recombinant BACE2 protein (Homo sapiens, UniProt Q9Y5Z0)
T2 construct: recombinant BACE2 protein in a final concentration of 0.4 μg/ml
T2 sequence (Q9Y5Z0 63-518): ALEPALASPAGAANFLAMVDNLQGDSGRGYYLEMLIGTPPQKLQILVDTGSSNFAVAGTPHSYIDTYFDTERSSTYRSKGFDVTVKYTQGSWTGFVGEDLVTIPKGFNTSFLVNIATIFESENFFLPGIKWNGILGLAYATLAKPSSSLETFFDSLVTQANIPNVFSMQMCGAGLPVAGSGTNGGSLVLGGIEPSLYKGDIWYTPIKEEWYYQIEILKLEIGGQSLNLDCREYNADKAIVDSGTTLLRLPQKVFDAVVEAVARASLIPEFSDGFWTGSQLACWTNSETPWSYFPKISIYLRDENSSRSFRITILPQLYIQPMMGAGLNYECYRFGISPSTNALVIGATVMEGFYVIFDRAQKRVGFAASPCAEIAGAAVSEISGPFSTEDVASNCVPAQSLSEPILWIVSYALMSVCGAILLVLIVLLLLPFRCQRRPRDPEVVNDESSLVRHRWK
Test: BACE2 biochemical FRET based assay
Conditions: BACE2, 450 minutes at room temperature, pH 5.0; read-out: Biochemical FRET based assay pIC50 (converted)
Text: as §1, with “assay” for “assay is an APP derived 13 amino acids peptide that”, “the beta-secretase,” for “BACE1,”
Briefly in a 384-well format recombinant BACE2 protein in a final concentration of 0.4 μg/ml is incubated for 450 minutes at room temperature with 10 μM substrate in incubation buffer (50 mM Citrate buffer pH 5.0, 0.05% PEG, no DMSO) in the absence or presence of compound. Next the amount of proteolysis is directly measured by fluorescence measurement at T=0 and T=450 (excitation at 320 nm and emission at 405 nm). Results are expressed in RFU (Relative Fluorescence Units), as difference between T450 and T0.
as §2

| IC50 [µM] | Compound |
| --- | --- |
| > 10 | COc1cnc(C(=O)Nc2ccc(F)c([C@@]3(C)N=C(N)[C@@](C)(S(C)(=O)=O)C[C@@H]3F)c2)cn1 [Compound 18] |
| 0.302 | C[C@]1(S(C)(=O)=O)CC[C@@](CF)(c2cc(NC(=O)c3ccc(F)cn3)ccc2F)N=C1N [Compound 19] |
| 4.68 | C[C@]1(S(C)(=O)=O)CC(F)(F)[C@@](C)(c2cc(NC(=O)c3cnc(OCF)cn3)ccc2F)N=C1N [Compound 23] |
| 0.977 | C[C@]1(c2cc(NC(=O)c3cnc(OCF)cn3)ccc2F)N=C(N)[C@](C)(S(C)(=O)=O)CC1(F)F [Compound 24] |
| 0.00204 | CC1(S(=O)(=O)C2CC2)CCC(CF)(c2cc(NC(=O)c3ccc(F)cn3)ccc2F)N=C1N (stereo not drawn) [Compound 25] |
| 0.0324 | CCOc1cnc(C(=O)Nc2ccc(F)c(C3(CF)CCC(C)(S(C)(=O)=O)C(N)=N3)c2)cn1 (stereo not drawn) [Compound 37] |
| 0.00417 | CC1(S(C)(=O)=O)CCC(CF)(c2cc(NC(=O)c3ncc(F)cn3)ccc2F)N=C1N (stereo not drawn) [Compound 38] |
| 0.00331 | Cc1nc(C(=O)Nc2ccc(F)c(C3(CF)CCC(C)(S(C)(=O)=O)C(N)=N3)c2)co1 (stereo not drawn) [Compound 40] |
| 0.0224 | CC1(S(C)(=O)=O)CCC(CF)(c2cc(NC(=O)c3cnc(C(F)F)cn3)ccc2F)N=C1N (stereo not drawn) [Compound 42] |
| 0.0646 | CC1(S(C)(=O)=O)CCC(CF)(c2cc(NC(=O)c3ncc(C(F)(F)F)cn3)ccc2F)N=C1N (stereo not drawn) [Compound 43] |
| 0.00339 | CC1(S(C)(=O)=O)CCC(CF)(c2cc(NC(=O)c3ncc(Cl)cn3)ccc2F)N=C1N (stereo not drawn) [Compound 44] |
| 0.0135 | COc1cnc(C(=O)Nc2ccc(F)c(C3(CF)CCC(C)(S(C)(=O)=O)C(N)=N3)c2)nc1 (stereo not drawn) [Compound 45] |
| 0.00437 | C[C@@]1(S(C)(=O)=O)CC[C@@](CF)(c2cc(NC(=O)c3ccc(F)cn3)cc(F)c2F)N=C1N [Compound 47] |
| 0.447 | CO[C@@H]1C[C@@](C)(S(C)(=O)=O)C(N)=N[C@]1(C)c1cc(NC(=O)c2cnc(OCF)cn2)ccc1F [Compound 48a] |
| 0.324 | CO[C@H]1C[C@@](C)(C#N)C(N)=N[C@]1(C)c1cc(NC(=O)c2cnc(OCF)cn2)ccc1F [Compound 49a] |
